Data: patent US11000033B2, “Ketone or oxime compound, and herbicide” (NISSAN CHEMICAL CORPORATION, priority 2014, dated 2021)

What was measured:
Assay type in all cases: in vivo
[1] = system: Setaria viridis; experiment: Test Example 4: herbicidal effect by soil treatment (symbol G); conditions: 320 g/ha
Outline: (§1)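 Seeds were sown in sterilized diluvial soil, covered with about 1.5 cm of soil, and the soil surface was sprayed with a water-diluted emulsion of the compound at a predetermined rate. Plants grew in a greenhouse at 25° C. to 30° C.; effects were scored visually 3 weeks after application.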

[2] = system: Amaranthus retroflexus; experiment: Test Example 5: herbicidal effect by foliage application, plastic box (symbol N); conditions: 320 g/ha, 3 weeks after application
Outline: (§2)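 Visual herbicidal score, taken three weeks post-application, of seedlings sprayed on the foliage with water-diluted emulsion at a predetermined amount; plants were 14 days old, greenhouse-raised at 25° C. to 30° C.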

[3] = system: wheat; experiment: Test Example 4: effect on crop by soil treatment (symbol e); conditions: 320 g/ha
Outline: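 Greenhouse culture at 25° C. to 30° C. followed sowing of seed in spots on sterilized diluvial soil with a soil cover close to 1.5 cm thick.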

[4] = system: Apera spica-venti; experiment: Test Example 4: herbicidal effect by soil treatment (symbol L); conditions: 320 g/ha
Outline: as §1

[5] = system: Amaranthus retroflexus; experiment: Test Example 4: herbicidal effect by soil treatment (symbol N); conditions: 320 g/ha
Outline: as §1

[6] = system: Echinochloa oryzacola Vasing.; experiment: Test Example 2: herbicidal activity, application during weed generation in submerged conditions (symbol A); conditions: Table 23; application herbicide amount 320 g/ha; grade 0-5 by criteria of Test Example 1
Outline: (§3)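 Seeds sown in flooded alluvial soil (4 cm water) were grown in a 25-30° C greenhouse. At the one- to two-leaf stage, diluted emulsion of compound was applied to the water surface at a predetermined rate. Effect was scored 3 weeks later.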

[7] = system: Cyperus difformis; experiment: Test Example 3: herbicidal effect by foliage application, Wagner pot (symbol E); conditions: application herbicide amount 320 g/ha
Outline: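 Plants sown in submerged alluvial soil (water depth 0.1–0.5 cm) in a 25–30 °C greenhouse and grown 14 days. An emulsion of the compound diluted in water to a set herbicide amount was sprayed uniformly on foliage. Effect on each plant scored 3 weeks after application.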

[8] = system: Alopecurus myosuroides; experiment: Test Example 5: herbicidal effect by foliage application, plastic box (symbol J); conditions: 320 g/ha, 3 weeks after application
Outline: as §2

[9] = system: Echinochloa oryzacola Vasing.; experiment: Test Example 1: herbicidal activity, application before weed generation in submerged conditions (symbol A); conditions: application herbicide amount 320 g/ha
Outline: (§4)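 Scores run 0 to 5 by herbicidal ratio, with 5 meaning 90% or more and 0 meaning 5% or lower, read 3 weeks after treatment. Compound was applied as a diluted emulsion to the water surface of submerged alluvial-soil pots on the day weed seeds were sown.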

[10] = system: Scirpus juncoides; experiment: Test Example 2: herbicidal activity, application during weed generation in submerged conditions (symbol B); conditions: Table 23; application herbicide amount 320 g/ha; grade 0-5 by criteria of Test Example 1
Outline: as §3

[11] = system: transplanted rice plant; experiment: Test Example 1: effect on crop, application before weed generation in submerged conditions (symbol a); conditions: application herbicide amount 320 g/ha
Outline: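 Alluvial soil pots flooded to 4 cm water, sown with Echinochloa oryzacola, Scirpus juncoides and Monochoria vaginalis, then transplanted with 2.5 leaf stage rice seedlings; pre-emergence application. Greenhouse 25° C. to 30° C.; scored 0–5 by herbicidal ratio 3 weeks after application.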

[12] = system: Echinochloa crus-galli var. crus-galli; experiment: Test Example 5: herbicidal effect by foliage application, plastic box (symbol H); conditions: 320 g/ha, 3 weeks after application
Outline: as §2

[13] = system: Scirpus juncoides; experiment: Test Example 1: herbicidal activity, application before weed generation in submerged conditions (symbol B); conditions: application herbicide amount 320 g/ha
Outline: as §4

SMILES	G: Setaria viridis, herbicidal effect grade [1]	N: Amaranthus retroflexus, herbicidal effect (criteria 0-5) [2]	e: wheat, effect grade on crop [3]	L: Apera spica-venti, herbicidal effect grade [4]	N: Amaranthus retroflexus, herbicidal effect grade [5]	Herbicidal effect grade, A: Echinochloa oryzacola Vasing. [6]	herbicidal effect on E, grade 0-5 [7]	J: Alopecurus myosuroides, herbicidal effect (criteria 0-5) [8]	Herbicidal effect grade, A: Echinochloa oryzacola Vasing. [9]	Herbicidal effect grade, B: Scirpus juncoides [10]	Effect grade on crop, a: transplanted rice plant [11]	H: Echinochloa crus-galli var. crus-galli, herbicidal effect (criteria 0-5) [12]	Herbicidal effect grade, B: Scirpus juncoides [13]
CC(CC1CC(O)=C(c2c(C)cc(C)cc2C)C1=O)=NOCC#N (stereo not drawn) [1-102]	5 (Herbicidal ratio of 90% or more (almost completely withered))	0 (Herbicidal ratio of 5% or lower (almost no effect))	0 (Herbicidal ratio of 5% or lower (almost no effect))	5 (Herbicidal ratio of 90% or more (almost completely withered))	0 (Herbicidal ratio of 5% or lower (almost no effect))	5 (Herbicidal ratio of 90% or more (almost completely withered))	5 (Herbicidal ratio of 90% or more (almost completely withered))	5 (Herbicidal ratio of 90% or more (almost completely withered))	5 (Herbicidal ratio of 90% or more (almost completely withered))	2 (Herbicidal ratio of 20% or higher and lower than 40%)	5 (Herbicidal ratio of 90% or more (almost completely withered))	5 (Herbicidal ratio of 90% or more (almost completely withered))	3 (Herbicidal ratio of 40% or higher and lower than 70%)
CON=C(C)CC1CC(OC(=O)c2cnoc2C2CC2)=C(c2c(C)cc(C)cc2C)C1=O (stereo not drawn) [1-103]	5 (Herbicidal ratio of 90% or more (almost completely withered))	0 (Herbicidal ratio of 5% or lower (almost no effect))	4 (Herbicidal ratio of 70% or higher and lower than 90%)	4 (Herbicidal ratio of 70% or higher and lower than 90%)	5 (Herbicidal ratio of 90% or more (almost completely withered))	5 (Herbicidal ratio of 90% or more (almost completely withered))	5 (Herbicidal ratio of 90% or more (almost completely withered))	5 (Herbicidal ratio of 90% or more (almost completely withered))	5 (Herbicidal ratio of 90% or more (almost completely withered))	4 (Herbicidal ratio of 70% or higher and lower than 90%)	5 (Herbicidal ratio of 90% or more (almost completely withered))	5 (Herbicidal ratio of 90% or more (almost completely withered))	5 (Herbicidal ratio of 90% or more (almost completely withered))
CON=C(C)CC1CC(OC(=O)N2CCOCC2)=C(c2c(C)cc(C)cc2C)C1=O (stereo not drawn) [1-104]	5 (Herbicidal ratio of 90% or more (almost completely withered))	0 (Herbicidal ratio of 5% or lower (almost no effect))	1 (Herbicidal ratio of 5% or higher and lower than 20%)	5 (Herbicidal ratio of 90% or more (almost completely withered))	0 (Herbicidal ratio of 5% or lower (almost no effect))	5 (Herbicidal ratio of 90% or more (almost completely withered))	5 (Herbicidal ratio of 90% or more (almost completely withered))	5 (Herbicidal ratio of 90% or more (almost completely withered))	5 (Herbicidal ratio of 90% or more (almost completely withered))	4 (Herbicidal ratio of 70% or higher and lower than 90%)	3 (Herbicidal ratio of 40% or higher and lower than 70%)	5 (Herbicidal ratio of 90% or more (almost completely withered))	4 (Herbicidal ratio of 70% or higher and lower than 90%)
